The results in this text go back to patent publication US9034918B2, “Composition including at least one trans-cinnamaldehyde and the use thereof in the treatment of bacterial infections, specifically in the treatment of nosocomial infections” (SEPTEOS, priority 2009, dated 2015).

Holding throughout (assay): Antibiogram by diffusion technique (CA-SFM 2008)
What all share (format): cell-based

The test system of experiment [1] is Enterococcus faecium (9001). The settings on record: strain 9001. From the text: (§1) Three clinical categories were selected for interpretation of the in vitro sensitivity tests: sensitive (S), resistant (R) and intermediate (I). • The strains categorized S are those for which the probability of therapeutic success is high in the case of treatment by systemic route with the dosing schedule recommended in the summary of product characteristics (SPC) prepared by the French Health Products Safety Agency (AFSSAPS). • The strains categorized R are those for which there is a high probability of therapeutic failure regardless of treatment type and antibiotic dose. • The strains categorized I are those for which therapeutic success cannot be predicted. These strains form a heterogeneous group for which the results obtained in vitro are not predictive of therapeutic success. […] The intermediate category is also a buffer zone which takes into account technical and biological uncertainties.
(§2) The sensitivity of strains to antibiotics was determined by a diffusion technique according to the 2008 recommendations by the Antibiogram Committee of the French Microbiology Society (CA-SFM).
(§3) In terms of critical concentrations and diameters, strains are categorized as follows: • sensitive (S): strains for which the MIC of the antibiotic tested is less than or equal to the lower critical concentration c, which is equivalent to a diameter greater than or equal to the critical diameter D; • resistant (R): strains for which the MIC of the antibiotic tested are greater than the upper critical concentration C, corresponding to a diameter less than the critical diameter d; • intermediate sensitivity (I): strains for which the MIC of the antibiotic tested and the corresponding diameter are between the two critical concentrations and the two critical diameters.
(§4) The tests were carried out on Mueller-Hinton agar. An inoculum adjusted to 0.5 on the McFarland scale is then diluted to 1/100. Petri dishes are inoculated by swabbing. The dishes are read after 24 hours of incubation at 37° C.
(§5) The raw results are then interpreted according to the interpretative reading rules of the CA-SFM.

Experiment [2] deals with strain 9007, Pseudomonas aeruginosa, with VIM-2 carbapenemase.
Excerpt: as §1, §2, §3, §4, §5

For experiment [3], the system named is strain 9010, Acinetobacter baumannii, with VEB-1 ESBL.
Excerpt: as §1, §2, §3, §4, §5

A further experiment deals with E. coli ATCC 25922. More on the design: Diameter (D): unit not given here. From the text:
Three clinical categories were selected for interpretation of the in vitro sensitivity tests: sensitive (S), resistant (R) and intermediate (I). • The strains categorized S are those for which the probability of therapeutic success is high in the case of treatment by systemic route with the dosing schedule recommended in the summary of product characteristics (SPC) prepared by the French Health Products Safety Agency ([…]). • The strains categorized R are those for which there is a high probability of therapeutic failure regardless of treatment type and antibiotic dose. • The strains categorized I are those for which therapeutic success cannot be predicted. These strains form a heterogeneous group for which the results obtained in vitro are not predictive of therapeutic success. […] The intermediate category is also a buffer zone which takes into account technical and biological uncertainties. The sensitivity of strains to antibiotics was determined by a diffusion technique according to the 2008 recommendations by the Antibiogram Committee of the French Microbiology Society (CA-SFM). In terms of critical concentrations and diameters, strains are categorized as follows: • sensitive (S): strains for which the MIC of the antibiotic tested is less than or equal to the lower critical concentration c, which is equivalent to a diameter greater than or equal to the critical diameter D; • resistant (R): strains for which the MIC of the antibiotic tested are greater than the upper critical concentration C, corresponding to a diameter less than the critical diameter d; • intermediate sensitivity (I): strains for which the MIC of the antibiotic tested and the corresponding diameter are between the two critical concentrations and the two critical diameters. The tests were carried out on Mueller-Hinton agar. An inoculum adjusted to 0.5 on the McFarland scale is then diluted to 1/100. Petri dishes are inoculated by swabbing. The dishes are read after 24 hours of incubation at 37° C. The raw results are then interpreted according to the interpretative reading rules of the CA-SFM. Two examples: all strains of methicillin-resistant Staphylococcus are resistant to all beta-lactams, and the same is true for gentamicin-resistant strains; golden staph is necessarily resistant to kanamycin (and amikacin) and tobramycin. The quality of the diffusion method is controlled using E. coli strain ATCC 25922.

For a further experiment, the system named is Enterococcus strain 8153. More on the design: Diameter: unit not given here.
Excerpt: as §1, §2, §3, §4, §5

The next experiment relates to Enterococcus strain 8152. Further details: Diameter: unit not given here.
Excerpt: as §1, §2, §3, §4, §5

The next experiment relates to E. coli strain 8154.
Excerpt: as §1, §2, §3, §4, §5

The subject of experiment [4] is golden staph (S. aureus) strain 8239.
Excerpt: as §1, §2, §3, §4, §5

In experiment [5] the test system is Pseudomonas aeruginosa strain 8129.
Excerpt: as §1, §2, §3, §4, §5

The test system of another experiment is E. coli strain 8157.
Excerpt: as §1, §2, §3, §4, §5

In experiment [6] the test system is golden staph (S. aureus) strain 8147.
Excerpt: as §1, §2, §3, §4, §5

The next experiment relates to E. coli strain 8156.
Excerpt: as §1, §2, §3, §4, §5

Experiment [7] relates to golden staph (S. aureus) strain 8240.
Excerpt: as §1, §2, §3, §4, §5

In experiment [8] the test system is Pseudomonas aeruginosa strain 8132.
Excerpt: as §1, §2, §3, §4, §5

Experiment [9] relates to Pseudomonas aeruginosa strain 8134.
Excerpt: as §1, §2, §3, §4, §5

A further experiment relates to E. coli strain 8155.
Excerpt: as §1, §2, §3, §4, §5

The test system of experiment [10] is Pseudomonas aeruginosa strain 8128.
Excerpt: as §1, §2, §3, §4, §5

As for `CN[C@@H]1[C@H](O[C@H]2[C@H](O[C@H]3[C@H](O)[C@@H](O)[C@H](N=C(N)N)[C@@H](O)[C@@H]3N=C(N)N)O[C@@H](C)[C@]2(O)C=O)O[C@@H](CO)[C@H](O)[C@H]1O` [Strepto HC], the Category entry in [1] was “R”.

On to `C[C@H]1COc2c(N3CCN(C)CC3)c(F)cc3c(=O)c(C(=O)O)cn1c23` [Levofloxacin], for which the Category entry in experiment [1] is given as “R”; in experiment [2] it was “S”; in [3], “R”; in the experiment with Enterococcus strain 8153 it was “S”; in the experiment with Enterococcus strain 8152 it was “S”. In addition, the “Category (Cat.)” value with E. coli ATCC 25922 is “S”. For the same compound, the “Diameter (D)” value with E. coli ATCC 25922 came to 31. The Diameter in the experiment on Enterococcus strain 8153 came out at 26; in the experiment with Enterococcus strain 8152 it was 29. Besides, the Cat. result in the experiment with E. coli strain 8154 was “S”; in experiment [4] it was “R”; in [5], “S”; with E. coli strain 8157 it was “R”; in [6], “R”; with E. coli strain 8156, “S”. Further, the Cat. result in experiment [7] is “R”; in experiment [8] it was “R”; in [9] it was “R”; in the experiment on E. coli strain 8155 it was “S”; in [10], “S”. The D with E. coli strain 8154 was determined as 36; in experiment [4] it was 10; in experiment [5] it was 26; in the experiment with E. coli strain 8157, 11; in experiment [6], 10; in the experiment with E. coli strain 8156, 31. For the same compound, the D came out at 0 in experiment [7]; 0 in experiment [8]; 0 in experiment [9]; 31 in the experiment on E. coli strain 8155; 23 in experiment [10].

`NC[C@H]1O[C@H](O[C@H]2[C@H](O)[C@@H](O[C@H]3O[C@H](CO)[C@@H](O)[C@H](N)[C@H]3O)[C@H](N)C[C@@H]2N)[C@H](O)[C@@H](O)[C@@H]1O` [Kanamycin]: the Category result (in experiment [1]; in [2]; in experiment [3]; with Enterococcus strain 8153; in the experiment on Enterococcus strain 8152) was “R” each time. Besides, in the experiment with E. coli ATCC 25922, the “Category (Cat.)” value is “S”. Further, the “Diameter (D)” value in the experiment with E. coli ATCC 25922 amounted to 22. Besides, the Diameter in the experiment on Enterococcus strain 8153 is 14; in the experiment on Enterococcus strain 8152 it was 10. Moreover, the Cat. entry is reported as “S” in the experiment with E. coli strain 8154; “S” in [4]; “R” in experiment [5]; “S” in the experiment on E. coli strain 8157; “S” in experiment [6]; “S” with E. coli strain 8156. In addition, the Cat. result in experiment [7] was “R”; in experiment [8] it was “R”; in experiment [9] it was “R”; in the experiment on E. coli strain 8155 it was “S”; in experiment [10], “R”. Moreover, the D in the experiment on E. coli strain 8154 was 24; in [4], 26; in experiment [5] it was 10; with E. coli strain 8157, 24; in experiment [6] it was 22; in the experiment on E. coli strain 8156, 27. The D in experiment [7] stood at 12; in experiment [8], 0; in experiment [9], 14; in the experiment on E. coli strain 8155, 23; in [10], 9.

In the case of `COc1c(N2C[C@@H]3CCCN[C@@H]3C2)c(F)cc2c(=O)c(C(=O)O)cn(C3CC3)c12` [Moxiflo], in experiment [1], the Category entry was “R”.

Turning to `CC(=O)NC[C@H]1CN(c2ccc(N3CCOCC3)c(F)c2)C(=O)O1` [Linezolid], in [1], the Category entry is “S”.

`CC1(C)S[C@@H]2[C@H](NC(=O)[C@H](N)c3ccccc3)C(=O)N2[C@H]1C(=O)O` [Ampi]: in experiment [1], the Category entry is reported as “R”.

Turning to `CC[C@H]1OC(=O)[C@H](C)[C@@H](O[C@H]2C[C@@](C)(OC)[C@@H](O)[C@H](C)O2)[C@H](C)[C@@H](O[C@@H]2O[C@H](C)C[C@H](N(C)C)[C@H]2O)[C@](C)(O)C[C@@H](C)C(=O)[C@H](C)[C@@H](O)[C@]1(C)O` [Erythro], the Category entry in experiment [1] is reported as “R”.

`CCC[C@@H]1C[C@@H](C(=O)N[C@@H]([C@H]2O[C@H](SC)[C@H](O)[C@@H](O)[C@H]2O)[C@H](C)Cl)N(C)C1` [Clindamycin]: the Category result (in [1]; in the experiment on Enterococcus strain 8153; with Enterococcus strain 8152) was “R” in each case. The Diameter with Enterococcus strain 8153 and with Enterococcus strain 8152 was 0 in each case. Besides, the Cat. result in experiment [4], in experiment [6] and in [7] was “S” in each case. The D turned out to be 31 in [4], 29 in experiment [6] and 30 in [7].

As for `O=C(N[C@H](CO)[C@H](O)c1ccc([N+](=O)[O-])cc1)C(Cl)Cl` [Chloram], the Category result in experiment [1] is recorded as “S”.

For the compound `CN(C)[C@@H]1C(O)=C(C(N)=O)C(=O)[C@@]2(O)C(O)=C3C(=O)c4c(O)cccc4[C@@](C)(O)[C@H]3C[C@@H]12` [Tetra], the Category result in experiment [1] was “S”.

For `CN[C@H](CC(C)C)C(=O)N[C@H]1C(=O)N[C@@H](CC(N)=O)C(=O)N[C@H]2C(=O)N[C@H]3C(=O)N[C@H](C(=O)N[C@H](C(=O)O)c4cc(O)cc(O)c4-c4cc3ccc4O)[C@H](O)c3ccc(c(Cl)c3)Oc3cc2cc(c3O[C@@H]2O[C@H](CO)[C@@H](O)[C@H](O)[C@H]2O[C@H]2C[C@](C)(N)[C@H](O)[C@H](C)O2)Oc2ccc(cc2Cl)[C@H]1O` [Vanco], the Category entry in experiment [1] is recorded as “R”.
